Test results published in patent US6998415B2, “Substituted sulfonylphenylheterocycles as cyclooxygenase-2 and 5-lipoxygenase inhibitors” (Pharmacia Corporation, priority 1996, dated 2006).

Legend:
5-lipoxygenase (5-LO) = target: T1, 5-lipoxygenase (5-LO) (Homo sapiens, UniProt P09917); experiment: Assay for 5-lipoxygenase activity: calcium ionophore-induced LTB4 production in human whole blood; type: cell-based; conditions: A-23187 (20 μg/ml)-induced LTB4 in human whole blood; mean IC50
T1 construct: calcium ionophore-induced Leukotriene B4 (LTB4) production in human whole blood; endogenous in cells; host or cells: human whole blood (healthy donors), diluted 1:4 in RPMI 1640
T1 sequence (P09917 1-674): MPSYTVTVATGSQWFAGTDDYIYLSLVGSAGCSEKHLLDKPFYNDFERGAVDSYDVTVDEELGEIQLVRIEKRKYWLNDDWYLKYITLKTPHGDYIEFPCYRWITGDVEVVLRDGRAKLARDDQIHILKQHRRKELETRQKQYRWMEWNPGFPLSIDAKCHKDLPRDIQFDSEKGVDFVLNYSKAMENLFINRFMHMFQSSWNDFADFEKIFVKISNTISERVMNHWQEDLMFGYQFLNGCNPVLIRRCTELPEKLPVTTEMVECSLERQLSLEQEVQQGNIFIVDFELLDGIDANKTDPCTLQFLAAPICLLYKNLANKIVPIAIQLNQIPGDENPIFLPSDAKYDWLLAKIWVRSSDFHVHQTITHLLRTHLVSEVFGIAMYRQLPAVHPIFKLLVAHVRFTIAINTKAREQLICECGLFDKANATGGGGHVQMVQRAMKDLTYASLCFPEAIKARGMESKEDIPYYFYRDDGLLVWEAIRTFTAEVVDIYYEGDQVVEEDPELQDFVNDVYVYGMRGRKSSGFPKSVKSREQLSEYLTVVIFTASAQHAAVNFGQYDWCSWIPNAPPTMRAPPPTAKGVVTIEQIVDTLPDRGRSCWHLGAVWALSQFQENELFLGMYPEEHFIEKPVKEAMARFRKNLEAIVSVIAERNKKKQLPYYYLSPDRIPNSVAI
Experimental: Assay for 5-Lipoxygenase Activity
The 5-lipoxygenase (5-LO) activity of the compounds were determined by the calcium ionophore-induced Leukotriene B4 (LTB4) production in human whole blood. Venous blood was collected from healthy human donors using heparin as an anti-coagulant. Human blood samples (0.2 ml of a 1:4 dilution in RPMI 1640 medium) were incubated in 96-well culture plates for 15 minutes at 37° C. with test compounds dissolved in ethanol (EtOH; final concentration<1%), or vehicle. Typically 7 concentrations of test compounds were examined in duplicate. A-23187 [Sigma] was added to the blood to a final concentration of 20 μg/ml, and the mixtures were incubated for 10 minutes at 37° C. The reaction was stopped by placing the samples on ice. The samples were then centrifuged at 800×g at 4° C. for 10 minutes to pellet the cells, and the supernatants were recovered for quantitation of LTB4 by LISA (Cayman Chemical Co.; sensitivity 3 pg/ml). IC50's were estimated from a four parameter logistic model with two parameters fixed, the minimum (0% inhibition) and maximum (100% inhibition). The IC50 value is the concentration that produces 50% inhibition between the fixed values of the minimum and maximum. Data is reported as the mean IC50 for each compound.

[1] = test system: rat paw edema (carrageenan foot edema); experiment: Rat carrageenan foot pad edema test; type: in vivo, rat (male Sprague-Dawley); conditions: dosed orally 1 h before carrageenan, foot volume 3 h after carrageenan
Experimental: Rat Carrageenan Foot Pad Edema Test
The carrageenan foot edema test was performed with materials, reagents and procedures essentially as described by winter, et al., (Proc. Soc. Exp. Biol. Med., 111, 544 (1962)). Male Sprague-Dawley rats were selected in each group so that the average body weight was as close as possible. Rats were fasted with free access to water for over sixteen hours prior to the test. The rats were dosed orally (1 mL) with compounds suspended in vehicle containing 0.5% methylcellulose and 0.025% surfactant, or with vehicle alone. One hour later a subplantar injection of 0.1 mL of 1% solution of carrageenan/sterile 0.9% saline was administered and the volume of the injected foot was measured with a displacement plethysmometer connected to a pressure transducer with a digital indicator. Three hours after the injection of the carrageenan, the volume of the foot was again measured. The average foot swelling in a group of drug-treated animals was compared with that of a group of placebo-treated animals and the percentage inhibition of edema was determined (Otterness and Bliven, Laboratory Models for Testing NSAIDs, in Non-steroidal Anti-Inflammatory Drugs, (J. Lombardino, ed. 1985)).

COX-1 = COX-1 (UniProt P23219); experiment: Assay for COX-1 activity in vitro (PGE2 ELISA, recombinant enzyme); type: biochemical, human or murine; conditions: recombinant COX-1, arachidonic acid 10 μM, pre-incubation 10–20 minutes
Experimental: Evaluation of COX-1 and COX-2 Activity in vitro a. Preparation of Recombinant COX Baculoviruses
(§1) Recombinant COX-1 and COX-2 were prepared as described by Gierse et al, [J. Biochem., 305, 479–84 (1995)]. A 2.0 kb fragment containing the coding region of either human or murine COX-1 or human or murine COX-2 was cloned into a BamHI site of the baculovirus transfer vector pVL1393 (Invitrogen) to generate the baculovirus transfer vectors for COX-1 and COX-2 in a manner similar to the method of D. R. O'Reilly et al (Baculovirus Expression Vectors: A Laboratory Manual (1992)). Recombinant baculoviruses were isolated by transfecting 4 μg of baculovirus transfer vector DNA into SF9 insect cells (2×10^8) along with 200 ng of linearized baculovirus plasmid DNA by the calcium phosphate method. See M. D. Summers and G. E. Smith, A Manual of Methods for Baculovirus Vectors and Insect Cell Culture Procedures, Texas Agric. Exp. Station Bull. 1555 (1987). Recombinant viruses were purified by three rounds of plaque purification and high titer (10^7–10^8 pfu/ml) stocks of virus were prepared. For large scale production, SF9 insect cells were infected in 10 liter fermentors (0.5×10^6/ml) with the recombinant baculovirus stock such that the multiplicity of infection was 0.1. After 72 hours the cells were centrifuged and the cell pellet homogenized in Tris/Sucrose (50 mM: 25%, pH 8.0) containing 1% 3-[(3-cholamidopropyl)dimethylammonio]-1-propanesulfonate (CHAPS). The homogenate was centrifuged at 10,000×G for 30 minutes, and the resultant supernatant was stored at −80° C. before being assayed for COX activity. […]
(§2) b. Assay for COX-1 and COX-2 Activity
(§3) COX activity was assayed as PGE2 formed/μg protein/time using an ELISA to detect the prostaglandin released. CHAPS-solubilized insect cell membranes containing the appropriate COX enzyme were incubated in a potassium phosphate buffer (50 mM, pH 8.0) containing epinephrine, phenol, and heme with the addition of arachidonic acid (10 μM). Compounds were pre-incubated with the enzyme for 10–20 minutes prior to the addition of arachidonic acid. Any reaction between the arachidonic acid and the enzyme was stopped after ten minutes at 37° C./room temperature by transferring 40 μl of reaction mix into 160 μl ELISA buffer and 25 μM indomethacin. The PGE2 formed was measured by standard ELISA technology (Cayman Chemical).

COX-2 = target: T2, COX-2 (UniProt P35354); experiment: Assay for COX-2 activity in vitro (PGE2 ELISA, recombinant enzyme); type: biochemical, human or murine; conditions: recombinant COX-2, arachidonic acid 10 μM, pre-incubation 10–20 minutes
T2 sequence (P35354 1-604): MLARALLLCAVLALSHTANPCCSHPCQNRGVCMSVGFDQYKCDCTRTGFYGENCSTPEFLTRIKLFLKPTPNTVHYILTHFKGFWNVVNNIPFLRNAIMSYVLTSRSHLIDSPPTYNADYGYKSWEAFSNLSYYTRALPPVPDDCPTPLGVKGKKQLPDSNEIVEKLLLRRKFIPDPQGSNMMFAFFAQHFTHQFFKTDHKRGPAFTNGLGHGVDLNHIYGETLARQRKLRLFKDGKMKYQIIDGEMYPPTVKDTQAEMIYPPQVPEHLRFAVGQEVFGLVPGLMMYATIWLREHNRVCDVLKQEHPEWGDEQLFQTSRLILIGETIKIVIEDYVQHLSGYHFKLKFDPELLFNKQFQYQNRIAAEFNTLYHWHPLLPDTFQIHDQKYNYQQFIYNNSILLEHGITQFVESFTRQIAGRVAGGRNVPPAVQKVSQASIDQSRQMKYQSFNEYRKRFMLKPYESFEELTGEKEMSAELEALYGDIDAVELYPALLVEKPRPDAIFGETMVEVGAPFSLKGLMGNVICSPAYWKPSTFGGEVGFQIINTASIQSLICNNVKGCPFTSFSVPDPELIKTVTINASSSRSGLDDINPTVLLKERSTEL
Experimental: Evaluation of COX-1 and COX-2 Activity in vitro
The COX-2 inhibit on activity of the compounds or this invention illustrated in the Examples was determined by the following methods. a. Preparation of Recombinant COX Baculoviruses
as §1, §2, §3

Row | IC50 (5-lipoxygenase (5-LO)) [nM] | IC50 (COX-1) [nM] | IC50 (COX-2) [nM] | melting point [°C] | SMILES | RAT PAW EDEMA % Inhibition @ 10 mg/kg body weight [1] [%]
1 | 20 | > 100000 | < 100 |  | COC1(c2cc(F)cc(OCc3nc(-c4ccc(F)cc4)c(-c4ccc(S(C)(=O)=O)cc4)o3)c2)CCOCC1 [Example 3, 4-(4-Fluorophenyl)-2-[[3-fluoro-5-(3,4,5,6-tetrahydro-4-methoxy-2H-pyran-4-yl)phenoxy)methyl]-5-(4-(methylsulfonyl)phenyl)oxazole] | 15
2 | 200 | 5000 | < 100 | 70 to 72 | COC1(c2cc(F)cc(OCc3nc(-c4ccc(F)cc4)c(-c4ccc(S(N)(=O)=O)cc4)o3)c2)CCOCC1 [Example 14, 4-[2-[[3-Fluoro-5-(3,4,5,6-tetrahydro-4-methoxypyran-4-yl)phenoxy]methyl]-4-(4-fluorophenyl)oxazol-5-yl]benzenesulfonamide] | 
3 | > 10000 | 2600 | < 100 | 74.7 to 78.5 | COC1(c2cccc(CSc3nc(-c4ccccc4)c(-c4ccc(S(N)(=O)=O)cc4)o3)c2)CCOCC1 [Example 21] | 
